Columns and labels:
Settings in all cases: exposure time: 72 h
[1] = system: E13 (patient-derived glioblastoma stem cells of classical subtype); assay: surviving fraction (nuclei count normalised to DMSO); higher = more cells surviving (less toxic)
[2] = system: E21 (patient-derived glioblastoma stem cells of mesenchymal subtype); assay: as above
[3] = system: E28 (patient-derived glioblastoma stem cells of classical subtype); assay: as above
[4] = system: E31 (patient-derived glioblastoma stem cells of proneural subtype); assay: as above
[5] = system: E34 (patient-derived glioblastoma stem cells of proneural subtype); assay: as above
[6] = system: E57 (patient-derived glioblastoma stem cells of mesenchymal subtype); assay: as above
[7] = system: FT3469 (normal neural stem cell line); assay: as above
[8] = system: E13; assay: phenotypic distance (Euclidean, principal components) from DMSO controls (arbitrary units); higher = stronger morphological change
[9] = system: E21; assay: as above
[10] = system: E28; assay: as above
[11] = system: E31; assay: as above
[12] = system: E34; assay: as above
[13] = system: E57; assay: as above
[14] = system: FT3469; assay: as above
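Wherever phenotypic distance (Euclidean, principal components) from DMSO controls is given: cell Painting imaging in 384-well plates, CellProfiler features reduced to at least 20 principal components, Euclidean distance versus same-plate DMSO vehicle wells (0.1% v/v), median over six images per well.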
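Wherever surviving fraction (nuclei count normalised to DMSO) is given: nuclei counted by high-content imaging of Hoechst-stained cells in laminin-coated 384-well plates, relative to 0.1% DMSO vehicle wells, with staurosporine as cell-death control.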

COc1cc([C@@H]2c3cc4c(cc3[C@@H](O[C@@H]3O[C@@H]5CO[C@@H](C)O[C@H]5[C@H](O)[C@H]3O)[C@H]3COC(=O)[C@H]23)OCO4)cc(OC)c1O [Etoposide]
Settings	phenotypic distance	surviving fraction
[1], 4.11523 nM	–	1.03
[1], 12.34567901 nM	–	0.806
[1], 37.037 nM	–	0.901
[1], 111.1111111 nM	–	0.78
[1], 333.333 nM	–	0.516
[1], 1000 nM	–	0.473
[1], 3000 nM	–	0.374
[2], 4.11523 nM	–	0.896
[2], 12.34567901 nM	–	0.855
[2], 37.037 nM	–	0.885
[2], 111.1111111 nM	–	0.812
[2], 333.333 nM	–	0.588
[2], 1000 nM	–	0.47
[2], 3000 nM	–	0.298
[3], 4.11523 nM	–	0.881
[3], 12.34567901 nM	–	0.762
[3], 37.037 nM	–	0.621
[3], 111.1111111 nM	–	0.419
[3], 333.333 nM	–	0.436
[3], 1000 nM	–	0.266
[3], 3000 nM	–	0.364
[4], 4.11523 nM	–	0.746
[4], 12.34567901 nM	–	0.823
[4], 37.037 nM	–	0.554
[4], 111.1111111 nM	–	0.493
[4], 333.333 nM	–	0.307
[4], 1000 nM	–	0.283
[4], 3000 nM	–	0.231
[5], 4.11523 nM	–	0.83
[5], 12.34567901 nM	–	0.966
[5], 37.037 nM	–	0.848
[5], 111.1111111 nM	–	0.873
[5], 333.333 nM	–	0.668
[5], 1000 nM	–	0.534
[5], 3000 nM	–	0.557
[6], 4.11523 nM	–	0.919
[6], 12.34567901 nM	–	1.01
[6], 37.037 nM	–	0.959
[6], 111.1111111 nM	–	0.851
[6], 333.333 nM	–	0.435
[6], 1000 nM	–	0.295
[6], 3000 nM	–	0.182
[7], 4.11523 nM	–	0.827
[7], 12.34567901 nM	–	0.774
[7], 37.037 nM	–	0.902
[7], 111.1111111 nM	–	0.731
[7], 333.333 nM	–	0.662
[7], 1000 nM	–	0.582
[7], 3000 nM	–	0.566
[8], 4.11523 nM	1.04	–
[8], 12.34567901 nM	0.799	–
[8], 37.037 nM	0.736	–
[8], 111.1111111 nM	0.704	–
[8], 333.333 nM	2.88	–
[8], 1000 nM	4.56	–
[8], 3000 nM	5.77	–
[9], 4.11523 nM	0.716	–
[9], 12.34567901 nM	0.855	–
[9], 37.037 nM	0.967	–
[9], 111.1111111 nM	1.35	–
[9], 333.333 nM	2.88	–
[9], 1000 nM	5.75	–
[9], 3000 nM	5.93	–
[10], 4.11523 nM	0.783	–
[10], 12.34567901 nM	1.11	–
[10], 37.037 nM	1.44	–
[10], 111.1111111 nM	1.78	–
[10], 333.333 nM	2.64	–
[10], 1000 nM	2.9	–
[10], 3000 nM	2.64	–
[11], 4.11523 nM	0.939	–
[11], 12.34567901 nM	0.828	–
[11], 37.037 nM	1.58	–
[11], 111.1111111 nM	3.2	–
[11], 333.333 nM	4.03	–
[11], 1000 nM	2	–
[11], 3000 nM	2.86	–
[12], 4.11523 nM	0.877	–
[12], 12.34567901 nM	0.742	–
[12], 37.037 nM	0.789	–
[12], 111.1111111 nM	1.03	–
[12], 333.333 nM	2.75	–
[12], 1000 nM	3.46	–
[12], 3000 nM	4.17	–
[13], 4.11523 nM	0.758	–
[13], 12.34567901 nM	0.794	–
[13], 37.037 nM	0.549	–
[13], 111.1111111 nM	1.24	–
[13], 333.333 nM	4.25	–
[13], 1000 nM	6.83	–
[13], 3000 nM	7.52	–
[14], 4.11523 nM	0.576	–
[14], 12.34567901 nM	0.799	–
[14], 37.037 nM	3.73	–
[14], 111.1111111 nM	1.07	–
[14], 333.333 nM	1.54	–
[14], 1000 nM	2.2	–
[14], 3000 nM	1.92	–

COC(=O)Nc1nc2cc(Sc3ccccc3)ccc2[nH]1 [Fenbendazole]
Settings	phenotypic distance	surviving fraction
[1], 4.1 nM	–	1.02
[1], 12.3 nM	–	1.07
[1], 37 nM	–	1.05
[1], 111.1 nM	–	0.86
[1], 333.3 nM	–	0.548
[1], 1000 nM	–	0.179
[1], 3000 nM	–	0.236
[2], 4.1 nM	–	1.07
[2], 12.3 nM	–	1.02
[2], 37 nM	–	0.982
[2], 111.1 nM	–	0.874
[2], 333.3 nM	–	0.941
[2], 1000 nM	–	0.105
[2], 3000 nM	–	0.122
[3], 4.1 nM	–	1
[3], 12.3 nM	–	1.09
[3], 37 nM	–	1.1
[3], 111.1 nM	–	0.927
[3], 333.3 nM	–	1.07
[3], 1000 nM	–	0.359
[3], 3000 nM	–	0.304
[4], 4.1 nM	–	1.12
[4], 12.3 nM	–	0.906
[4], 37 nM	–	0.836
[4], 111.1 nM	–	0.749
[4], 333.3 nM	–	0.526
[4], 1000 nM	–	0.0787
[4], 3000 nM	–	0.0818
[5], 4.1 nM	–	1.06
[5], 12.3 nM	–	0.988
[5], 37 nM	–	0.935
[5], 111.1 nM	–	1.01
[5], 333.3 nM	–	0.795
[5], 1000 nM	–	0.361
[5], 3000 nM	–	0.349
[6], 4.1 nM	–	1
[6], 12.3 nM	–	1.05
[6], 37 nM	–	1.06
[6], 111.1 nM	–	0.964
[6], 333.3 nM	–	0.841
[6], 1000 nM	–	0.0618
[6], 3000 nM	–	0.0799
[7], 4.1 nM	–	1.03
[7], 12.3 nM	–	1.1
[7], 37 nM	–	0.864
[7], 111.1 nM	–	1.02
[7], 333.3 nM	–	0.864
[7], 1000 nM	–	0.511
[7], 3000 nM	–	0.622
[8], 4.1 nM	0.824	–
[8], 12.3 nM	0.763	–
[8], 37 nM	0.771	–
[8], 111.1 nM	1.88	–
[8], 333.3 nM	3.45	–
[8], 1000 nM	6.64	–
[8], 3000 nM	6.13	–
[9], 4.1 nM	0.689	–
[9], 12.3 nM	0.58	–
[9], 37 nM	1.03	–
[9], 111.1 nM	1.63	–
[9], 333.3 nM	2.19	–
[9], 1000 nM	7.35	–
[9], 3000 nM	5.94	–
[10], 4.1 nM	0.869	–
[10], 12.3 nM	0.342	–
[10], 37 nM	0.965	–
[10], 111.1 nM	1.03	–
[10], 333.3 nM	1.48	–
[10], 1000 nM	3.39	–
[10], 3000 nM	3.63	–
[11], 4.1 nM	0.332	–
[11], 12.3 nM	0.747	–
[11], 37 nM	0.989	–
[11], 111.1 nM	1.13	–
[11], 333.3 nM	1.96	–
[11], 1000 nM	6.33	–
[11], 3000 nM	5.86	–
[12], 4.1 nM	0.744	–
[12], 12.3 nM	0.832	–
[12], 37 nM	0.751	–
[12], 111.1 nM	0.935	–
[12], 333.3 nM	1.56	–
[12], 1000 nM	4.45	–
[12], 3000 nM	5.29	–
[13], 4.1 nM	0.515	–
[13], 12.3 nM	0.484	–
[13], 37 nM	1.23	–
[13], 111.1 nM	1.6	–
[13], 333.3 nM	2.13	–
[13], 1000 nM	4.89	–
[13], 3000 nM	4.66	–
[14], 4.1 nM	0.898	–
[14], 12.3 nM	0.598	–
[14], 37 nM	0.489	–
[14], 111.1 nM	1.42	–
[14], 333.3 nM	1.54	–
[14], 1000 nM	2.9	–
[14], 3000 nM	2.71	–

Reference: the supplement of paper PMC13207355
